From patent publication US20250127165A1, “USE OF 2-AMINO-3-PHENYLBUTYRIC ACID OR 2,6-DIAMINO-3-METHYLHEXANOIC ACID AS PLANT IMMUNE RESISTANCE INDUCER” (NANJING TIANNONG BIOTECHNOLOGY CO., LTD., priority 2021, published 2025)

Assays:
cotton (Sikang 1) = assay: Induced resistance of cotton to salt stress (100 mM NaCl); assay type: in vivo; conditions: three days
Procedure: The experimental material was “Sikang 1” cotton, which was hydroponic cultured in a 500 mL plastic cup and ½ Hoagland nutrient solution was changed every three days. When the cotton seedling grew until the second true leaf fully unfolded, the leaf surface was sprayed with 2-amino-3-phenylbutyric acid solution. The concentrations used in this experiment were 0, 1, 10, 100, and 1,000 nM, and 0.02% Tween 20 was added as surfactant. The spraying was repeated once every 24 hours for a total of 2 times. On the second day after the treatment, NaCl was added to the ½ Hoagland nutrient solution to a final concentration of 100 mM to perform salt stress treatment. Each treatment was performed in triplicate. After three days of salt stress, rehydration treatment was performed, the salt injury symptoms of cotton were observed, and calculate the salt injury index was calculated. The formula is as follows: […]

[1] = test system: tomato spotted wilt virus; assay: Induced resistance of tobacco to tomato spotted wilt virus infection; assay type: in vivo, Nicotiana benthamiana; conditions: for viral protein content: leaves 3 days after inoculation, Western blot grey scale
Procedure: Tomato spotted wilt virus was obtained from Yunnan Province, China. The initial virus source was stored in a refrigerator at −80° C., and inoculated on the leaves of Nicotiana benthamiana using friction inoculation method to activate the virus. The virus plasmids were extracted and transformed with competent cells of Escherichia coli. The competent cells were coated on a resistant plate for culture. Single colonies were picked for PCR screening, and positive colonies were selected for sequencing and subsequent plasmid extraction. The plasmids with normal sequencing results were added to competent cells of Agrobacterium sp, and Agrobacterium was transformated by electroporation. A solution of the transformed Agrobacterium was coated on the corresponding resistant screening plate, and cultured at 28° C. (+1° C.) for 48 h. Single colonies of the Agrobacterium on transformation plate were picked, placed in 5 mL of LB medium with the corresponding resistance, and cultured overnight at 28° C., 180 rpm. The bacterial cells were collected by centrifugation at 6,000 rpm for 2 min, suspended with a treatment solution (10 mM MgCl2, 10 mM MES, and 10 μM Acetosyringone) until the OD600 value of the suspension was 0.5. The suspension was treated at 28° C. in the dark for 3 hours for later use. 2-amino-3-phenylbutyric acid was dissolved in distilled water and then gradiently diluted with distilled water into solutions of 0 nM, 0.1 nM, 1 nM, and 10 nM. Nicotiana benthamiana seeds were planted in small pots and incubated at 22° C. (+1° C.), 12 h/12 h light for 5 weeks. Healthy tobacco plants (preferably with 8-10 leaves) were selected and treated with the 2-amino-3-phenylbutyric acid solutions of the above concentrations by spraying on the stems and leaves, and repeated the treatment at 24-hour intervals for a total of two treatments. After 24 hours, a uniform concentration of Agrobacterium solution was extracted with a 1 mL syringe, the injection port of the syringe was pressed directly on the small hole on the back of the tobacco leaf, and the bacterial solution was slowly pushed in order to infiltrate soak the entire leaf. The infiltrated tobacco was moved to an environment of 24° C. (+1° C.), 12 h/12 h light for incubation. After 3 days, microscopic observation was performed and recorded. At the same time, the samples were taken, and the gray scale of protein bands was analyzed by Western blot combined with Image J software to determine the relative protein content of virus in leaves. After 15 days, the disease of tobacco leaves was observed and the disease index was recorded with reference to “grade and investigation method of tobacco diseases and insect pests” (GB/T 23222-2008) with the following formulas: […]
Grading standard of Tomato spotted wilt virus disease (grading and investigation were conducted per plant): • Grade 0: the whole plant is disease free; • Grade 1: heart leaves have clear veins or slightly mosaic, and there is no obvious dwarfing of diseased plants; • Grade 3: one-third of the leaves are mosaic without deformation, or the diseased plant is dwarfed to three quarters or more of the normal plant height; • Grade 5: one-third to one-half of the leaves are mosaic, or a few leaves are deformed, or the main veins become black, or the diseased plant is dwarfed to two-thirds to three-quarters of the normal plant height; • Grade 7: one-half to two-thirds of the leaves are mosaic or deformed, or a few main and lateral veins become necrotic, or the diseased plant is dwarfed to one-half to two-thirds of the normal plant height; • Grade 9: the leaves of the whole plant are mosaic, severely deformed or necrotic, or the diseased plant is dwarfed to one-half or […] of the normal plant height.

Arabidopsis thaliana = assay: Induced resistance of Arabidopsis thaliana to high temperature stress; assay type: in vivo; conditions: for heat injury index (%): 45° C. 12 h, 7 days recovery; for PIABS (photosynthetic performance index): after 45° C. for 12 h
Procedure: 2-amino-3-phenylbutyric acid was dissolved in distilled water and then gradiently diluted with distilled water into solutions of 100 nM, 1,000 nM, and 10,000 nM, and a blank control was set up, while 0.02% Tween 20 was added as surfactant. Four groups of replicates were set up for each concentration, and set up a blank control at room temperature. Arabidopsis thaliana seeds were planted in a pot with a diameter of 8.5 cm at about 50 seeds per pot, and grown in a greenhouse at a temperature of 22° C., a humidity of 60%-70%, and a light intensity of 100 μmol m^−2s^−1 (16 h light/8 h darkness). The treatment was initiated at the 21 d of seedling stage of Arabidopsis thaliana by spraying 2-amino-3-phenylbutyric acid solution on the leaf surface, and spraying twice within 24 hours. 24 hours after the second treatment, the plants were transferred to a light incubator at a temperature of 45° C. for high temperature stress treatment. After 12 h of treatment, they were treated in the dark at room temperature for 30 min, and then the chlorophyll fluorescence of the Arabidopsis thaliana leaves was measured with Plant Efficiency Handy PEA. Then, the plants were removed and transferred to a greenhouse at 25° C. for 7 days for recovery. The injured conditions of the plants were observed and the grade of hot injury was calculated, where the grading standard of heat injury is shown in Table 1, and the formula for calculating the heat injury index is as follows.
The concentrations of 2,6-diamino-3-methylhexanoic acid used in this trail are 0, 1, 10, 100 and 1,000 nM, and 0.02% Tween 20 is added as a surfactant. Four groups of replicates were set up. Other methods were the same as 2-amino-3-phenylbutyric acid, and the effect of 2,6-diamino-3-methylhexanoic acid to induce the resistance of Arabidopsis thaliana to high temperature stress was investigated.

[2] = 0.1 nM spray, 15 days after inoculation
[3] = 1 nM spray, 15 days after inoculation
[4] = each treatment in the range 0.1-10 nM
[5] = 10,000 nM, versus untreated heat-stressed group

SMILES	mortality (%) (cotton (Sikang 1); 1 nM)	salt injury index (%) (cotton (Sikang 1); 1 nM)	mortality (%) (cotton (Sikang 1); 10 nM)	salt injury index (%) (cotton (Sikang 1); 10 nM)	mortality (%) (cotton (Sikang 1); 100 nM)	salt injury index (%) (cotton (Sikang 1); 100 nM)	mortality (%) (cotton (Sikang 1); 1,000 nM)	salt injury index (%) (cotton (Sikang 1); 1,000 nM)	relative immunization effect (%) ([1]; 0.1 nM)	disease index [1, 2] [b]	viral protein content ([1]; 0.1 nM) [b]	relative immunization effect (%) ([1]; 1 nM)	disease index [1, 3] [c]	viral protein content ([1]; 1 nM) [c]	relative immunization effect (%) ([1]; 10 nM)	disease index [1, 4]	relative immune effect [1, 4] [%]	heat injury index (%) (Arabidopsis thaliana; 100 nM)	PIABS (photosynthetic performance index) (Arabidopsis thaliana; 100 nM)	heat injury index (%) (Arabidopsis thaliana; 1,000 nM)	further results
CC(CCCN)C(N)C(=O)O (stereo not shown) [2,6-diamino-3-methylhexanoic acid]	46	53	40	49	27	42	23	36	53.08	42.64 ± 1.25	0.41 ± 0.005	63.72	32.97 ± 1.26	0.23 ± 0.002	70.94	lower than 50	≥ 50	29	5.73 ± 0.17 c	9	heat injury index (%) (Arabidopsis thaliana; 1 nM): 49%; PIABS (photosynthetic performance index) (Arabidopsis thaliana; 1 nM): 1.84 ± 0.02 e; heat injury index (%) (Arabidopsis thaliana; 10 nM): 38%; PIABS (photosynthetic performance index) (Arabidopsis thaliana; 10 nM): 3.58 ± 0.11 days; increase of PIABS compared with the control group (Arabidopsis thaliana; 1,000 nM): 36 fold; PIABS (photosynthetic performance index) (Arabidopsis thaliana; 1,000 nM): 9.49 ± 0.14 b; decrease of heat injury index (Arabidopsis thaliana; 1,000 nM, versus untreated heat-stressed group): 64%
CC(c1ccccc1)C(N)C(=O)O (stereo not shown) [2-amino-3-phenylbutyric acid]	49	66.67	46	55	32	51	28	42	35.77	48.77 ± 0.87	0.33 ± 0.003	60.98	29.63 ± 1.51	0.14 ± 0.008	69.23	lower than 50	≥ 35	47	26.13 ± 7.37 bc	31	PIABS (photosynthetic performance index) (Arabidopsis thaliana; 1,000 nM): 27.27 ± 3.93 bc; heat injury index (%) (Arabidopsis thaliana; 10,000 nM): 16%; PIABS (photosynthetic performance index) (Arabidopsis thaliana; 10,000 nM): 33.40 ± 3.91 b; decrease of heat injury index (Arabidopsis thaliana; [5]): 56%; increase of PIABS (Arabidopsis thaliana; [5]): 134%
